Test results published in US20040198794A1, “Ondansetron forms and processes of making the same” (priority 2003, published 2004).
One block for each compound: values may come before it.

Key:
Assay type in all cases: physicochemical
[1] = Solvent-induced conversion between forms by slurrying
Description: It is sensitive to a solvent-induced conversion into a form II defined below by slurrying in some polar solvents, e.g. in methanol or water, while it is inert to the same slurrying or solvent treatment in non-polar solvents. […] Form II is resistant to a solvent-inducing conversion to form I at ambient temperature.

[2] = Storage stability of solid ondansetron forms
[3] = Dissolution and release of microcrystalline ondansetron; settings: particle size smaller than 200 microns
Description: It has been further discovered that ondansetron base having a particle size smaller than 200 microns (hereinafter “microcrystalline ondansetron”) is more suitable in making pharmaceutical formulations.

[4] = Hydration of solid ondansetron base on exposure to humidity
Description: After storage of the anhydrate form at humidity exceeding 10% RH, hydrates may be formed. A stable hydrated form comprise 1.3-1.5% of water, this corresponding to approximately 0.25 molar equivalent of water (a hemi-hemihydrate). Accordingly, another ondansetron form of the present invention is an ondansetron hydrate comprising ondansetron and water wherein the amount of water relative to ondansetron is within the range of 0.23-0.27 moles, more preferably 0.24-0.26 moles, per each one mole of ondansetron. Exposure of this or the anhydrated product to enhanced humidity (70% RH) results in a product having about 3% water content which corresponds to a hemihydrate (0.5 molar equivalent of water). Exposure to extreme humidity of about 90% or more leads to a monohydrate form of about 5% water. The most useful hydrated form of ondansetron base is the hemi-hemi hydrate as this is formed under most precipitation conditions and is stable. The above forms I or II are preferably hydrates containing 1.3-1.5% of water.

solvent-inducing conversion to form I ([1]; ambient temperature): resistant
form conversion during storage ([2]; prolonged storage at 40° C./75% relative humidity (RH)): partial conversion to Form I
stability during storage ([2]; room temperature, stored in closed vial): stable
Structure (SMILES): Cc1nccn1CC1CCc2c(c3ccccc3n2C)C1=O (stereo not shown) [Form II]

solvent-induced conversion into form II ([1]; slurrying in some polar solvents, e.g. methanol or water): sensitive
solvent-induced conversion into form II ([1]; slurrying or solvent treatment in non-polar solvents): inert
stability during storage ([2]; storage at ambient and elevated temperatures): sufficiently stable
Structure (SMILES): Cc1nccn1CC1CCc2c(c3ccccc3n2C)C1=O (stereo not shown) [form I]

dissolution in liquid medium ([3]; making liquid compositions): dissolves more rapidly
release from the tablet composition [3]: releases more rapidly
Structure (SMILES): Cc1nccn1CC1CCc2c(c3ccccc3n2C)C1=O (stereo not shown) [microcrystalline ondansetron]

water content after exposure to humidity ([4]; enhanced humidity (70% RH), corresponds to a hemihydrate): about 3%
water content after exposure to humidity ([4]; extreme humidity of about 90% or more, monohydrate form): about 5%
Structure (SMILES): Cc1nccn1CC1CCc2c(c3ccccc3n2C)C1=O (stereo not shown) [ondansetron base]
